Experimental data from patent US10729738B2, “Hindered disulfide drug conjugates” (priority 2015, dated 2020).

Test: In vitro disulfide cleavage and immolation by incubation with cysteine or glutathione (LC/MS)
Format: physicochemical
Conditions: for Percentage of all products: pH 7.0, 37° C.
Description: In a first phase of the experiment, disulfide cleavage and immolation by incubation with cysteine and glutathione—with the thiol concentrations mimic those in plasma and cancer cells—was investigated using unconjugated small molecule model systems with para-nitro-pyridyl disulfide-containing linker drug analogs 1, 2 and 11 below. In particular, cleavage and immolation was evaluated in vitro by incubation at […] with cysteine ([…] or 200 μM) or glutathione (GSH, 4 mM) in 100 mM Tris buffer pH 7.0 containing 5% methanol at 37° C. Aliquots were taken at specified time points and the samples were analyzed by LC/MS on Sciex TripleTOF 5600 on a Hypersil Gold C18 column (100×2.1, […], Thermo Scientific). The column was eluted by a gradient of buffer A (0.1% formic acid in 10 mM ammonium acetate) to buffer B (0.1% formic acid in 10 mM ammonium acetate in 90% acetonitrile), 5% B 0-0.5 min, 5-25% B 0.5-8 min, 25-75% B 8-13 min, and 75-95% B 13-13.5 min, 95% B 13.5-14.5 min, 95-5% B 14.5-15 min at 0.4 mL/min. Under these conditions, para-nitropyridyl thiol was eluted at 5.3 min. All products (compounds 1, 2, 11, 3a, 3b, 4a, 4b, 12a, 12 b, 6, 7, 13 and 8) were separated and characterized by LC/MS/MS in a positive ESI ion mode. All analytes had the protonated molecular MH^+ as the major species with little source fragmentation. Full scan accurate mass peak areas were used to estimate relative abundance of each component and the disappearance of 1, 2, and 11 estimated relative full scan peak areas was consistent with that estimated based on the relative abundance compared to time 0 by MS or UV. The results are reported in Table 15 below and the analytical results are presented in Table 16 below where “Cmpd” refers to compound, “RT” refers to retention time in minutes, and “Calc. Mass” refers to calculated mass. The relative abundance of disulfide cleavage and immolation products over time were evaluated and are disclosed in FIGS. 12A to 12C, 13A to 13C, 14A to 14C and 15A to 15C where the products were monitored by LC/MS from incubations of linker drugs 1, 2, and 11 at pH 7.0 and 37° C. in the presence of: 0.2 mM cysteine (FIGS. 12A, 12B and 12C); 0.03 mM cysteine (FIGS. 13A, 13B and 13C); 4 mM glutathione (FIGS. 14A, 14B and 14C); and 0.03 mM glutathione (FIGS. 15A, 15B and 15C). In FIGS. 12A to 12C, 13A to 13C, 14A to 14C and 15A to 15C, compound reference numbers 1, 2, 3a, 3b, 4a, 4b, 6, 7, 8, 11, 12a, 12b and 13 correspond to the structures below.

## C=C1CC2C=Nc3cc(OCCCCCOc4cc5c(cc4OC)C(=O)N4CC(=C)CC4C(O)N5C(=O)OCC(C)SSc4ccc([N+](=O)[O-])cn4)c(OC)cc3C(=O)N2C1 (stereo not shown) [Compound 1]
30 μM cysteine, 1 h
  Percentage of all products: 10.6%
30 μM cysteine, 4 h
  Percentage of all products: 7.9%
30 μM cysteine, 24 h
  Percentage of all products: 4.5%
200 μM cysteine, 1 h
  Percentage of all products: 2.8%
200 μM cysteine, 4 h
  Percentage of all products: 1.0%
200 μM cysteine, 24 h
  Percentage of all products: 0%
4 mM GSH, 1 h
  Percentage of all products: 9.1%
4 mM GSH, 4 h
  Percentage of all products: 0.9%
4 mM GSH, 24 h
  Percentage of all products: 0.1%

## C=C1C[C@H]2C=Nc3cc(OCCCCCOc4cc5c(cc4OC)C(=O)N4CC(=C)C[C@H]4C(O)N5C(=O)OCC4(SSc5ccc([N+](=O)[O-])cn5)CC4)c(OC)cc3C(=O)N2C1 (stereo partly shown) [Compound 2]
30 μM cysteine, 1 h
  Percentage of all products: 21.1%
30 μM cysteine, 4 h
  Percentage of all products: 19.1%
30 μM cysteine, 24 h
  Percentage of all products: 12.0%
200 μM cysteine, 1 h
  Percentage of all products: 16.1%
200 μM cysteine, 4 h
  Percentage of all products: 10.8%
200 μM cysteine, 24 h
  Percentage of all products: 7.0%
4 mM GSH, 1 h
  Percentage of all products: 17.9%
4 mM GSH, 4 h
  Percentage of all products: 9.0%
4 mM GSH, 24 h
  Percentage of all products: 4.3%

## C=C1CC2C=Nc3cc(OCCCCCOc4cc5c(cc4OC)C(=O)N4CC(=C)CC4C(O)N5C(=O)OCC(C)SSCC(N)C(=O)O)c(OC)cc3C(=O)N2C1 (stereo not shown) [Compound 3a]
30 μM cysteine, 1 h
  Percentage of all products: 80.1%
30 μM cysteine, 4 h
  Percentage of all products: 79.9%
30 μM cysteine, 24 h
  Percentage of all products: 75.0%
200 μM cysteine, 1 h
  Percentage of all products: 5.6%
200 μM cysteine, 4 h
  Percentage of all products: 1.9%
200 μM cysteine, 24 h
  Percentage of all products: 0%

## C=C1CC2C=Nc3cc(OCCCCCOc4cc5c(cc4OC)C(=O)N4CC(=C)CC4C(O)N5C(=O)OCC(C)SSCC(NC(=O)CCC(N)C(=O)O)C(=O)NCC(=O)O)c(OC)cc3C(=O)N2C1 (stereo not shown) [Compound 3b]
4 mM GSH, 1 h
  Percentage of all products: 0.3%
4 mM GSH, 4 h
  Percentage of all products: 0%
4 mM GSH, 24 h
  Percentage of all products: 0%

## C=C1C[C@H]2C=Nc3cc(OCCCCCOc4cc5c(cc4OC)C(=O)N4CC(=C)C[C@H]4C(O)N5C(=O)OCC4(SSC[C@H](N)C(=O)O)CC4)c(OC)cc3C(=O)N2C1 (stereo partly shown) [Compound 4a]
30 μM cysteine, 1 h
  Percentage of all products: 73.7%
30 μM cysteine, 4 h
  Percentage of all products: 71.1%
30 μM cysteine, 24 h
  Percentage of all products: 75.9%
200 μM cysteine, 1 h
  Percentage of all products: 39.1%
200 μM cysteine, 4 h
  Percentage of all products: 15.2%
200 μM cysteine, 24 h
  Percentage of all products: 3.2%

## C=C1C[C@H]2C=Nc3cc(OCCCCCOc4cc5c(cc4OC)C(=O)N4CC(=C)C[C@H]4C(O)N5C(=O)OCC4(SSC[C@H](NC(=O)CC[C@H](N)C(=O)O)C(=O)NCC(=O)O)CC4)c(OC)cc3C(=O)N2C1 (stereo partly shown) [Compound 4b]
4 mM GSH, 1 h
  Percentage of all products: 1.1%
4 mM GSH, 4 h
  Percentage of all products: 0.4%
4 mM GSH, 24 h
  Percentage of all products: 1.0%

## C=C1CC2C=Nc3cc(OCCCCCOc4cc5c(cc4OC)C(=O)N4CC(=C)CC4C(O)N5C(=O)OCC(C)S)c(OC)cc3C(=O)N2C1 (stereo not shown) [Compound 6]
30 μM cysteine, 1 h
  Percentage of all products: 2.5%
30 μM cysteine, 4 h
  Percentage of all products: 1.7%
30 μM cysteine, 24 h
  Percentage of all products: 0.5%
200 μM cysteine, 1 h
  Percentage of all products: 7.8%
200 μM cysteine, 4 h
  Percentage of all products: 2.8%
200 μM cysteine, 24 h
  Percentage of all products: 0.1%
4 mM GSH, 1 h
  Percentage of all products: 2.6%
4 mM GSH, 4 h
  Percentage of all products: 0%
4 mM GSH, 24 h
  Percentage of all products: 0%
Incubation with cysteine or glutathione
  Immolation of thiol intermediate: immolated quickly

## C=C1CC2C=Nc3cc(OCCCCCOc4cc5c(cc4OC)C(=O)N4CC(=C)CC4C=N5)c(OC)cc3C(=O)N2C1 (stereo not shown) [Compound 8, reference compound]
30 μM cysteine, 1 h, listed as 1 to 8, compound 1 to 8 conversion
  Percentage of all products: 6.8%
30 μM cysteine, 1 h, listed as 2 to 8, compound 2 to 8 conversion
  Percentage of all products: 0.1%
30 μM cysteine, 1 h, listed as 11 to 8, compound 11 to 8 conversion
  Percentage of all products: 3.6%
30 μM cysteine, 4 h, listed as 1 to 8, compound 1 to 8 conversion
  Percentage of all products: 10.5%
30 μM cysteine, 4 h, listed as 2 to 8, compound 2 to 8 conversion
  Percentage of all products: 0.1%
30 μM cysteine, 4 h, listed as 11 to 8, compound 11 to 8 conversion
  Percentage of all products: 8.7%
30 μM cysteine, 24 h, listed as 1 to 8, compound 1 to 8 conversion
  Percentage of all products: 20.5%
30 μM cysteine, 24 h, listed as 2 to 8, compound 2 to 8 conversion
  Percentage of all products: 0.5%
30 μM cysteine, 24 h, listed as 11 to 8, compound 11 to 8 conversion
  Percentage of all products: 27.6%
200 μM cysteine, 1 h, listed as 1 to 8, compound 1 to 8 conversion
  Percentage of all products: 83.7%
200 μM cysteine, 1 h, listed as 2 to 8, compound 2 to 8 conversion
  Percentage of all products: 0.1%
200 μM cysteine, 1 h, listed as 11 to 8, compound 11 to 8 conversion
  Percentage of all products: 68.8%
200 μM cysteine, 4 h, listed as 1 to 8, compound 1 to 8 conversion
  Percentage of all products: 94.4%
200 μM cysteine, 4 h, listed as 2 to 8, compound 2 to 8 conversion
  Percentage of all products: 0.3%
200 μM cysteine, 4 h, listed as 11 to 8, compound 11 to 8 conversion
  Percentage of all products: 83.2%
200 μM cysteine, 24 h, listed as 1 to 8, compound 1 to 8 conversion
  Percentage of all products: 99.9%
200 μM cysteine, 24 h, listed as 2 to 8, compound 2 to 8 conversion
  Percentage of all products: 2.5%
200 μM cysteine, 24 h, listed as 11 to 8, compound 11 to 8 conversion
  Percentage of all products: 97.7%
4 mM GSH, 1 h, listed as 1 to 8, compound 1 to 8 conversion
  Percentage of all products: 88.0%
4 mM GSH, 1 h, listed as 2 to 8, compound 2 to 8 conversion
  Percentage of all products: 0.2%
4 mM GSH, 1 h, listed as 11 to 8, compound 11 to 8 conversion
  Percentage of all products: 86.7%
4 mM GSH, 4 h, listed as 1 to 8, compound 1 to 8 conversion
  Percentage of all products: 98.5%
4 mM GSH, 4 h, listed as 2 to 8, compound 2 to 8 conversion
  Percentage of all products: 0.4%
4 mM GSH, 4 h, listed as 11 to 8, compound 11 to 8 conversion
  Percentage of all products: 94.9%
4 mM GSH, 24 h, listed as 1 to 8, compound 1 to 8 conversion
  Percentage of all products: 99.9%
4 mM GSH, 24 h, listed as 2 to 8, compound 2 to 8 conversion
  Percentage of all products: 2.3%
4 mM GSH, 24 h, listed as 11 to 8, compound 11 to 8 conversion
  Percentage of all products: 99.3%

## C=C1C[C@H]2C=Nc3cc(OCCCCCOc4cc5c(cc4OC)C(=O)N4CC(=C)C[C@H]4C(O)N5C(=O)OCC4(SSc5ccc([N+](=O)[O-])cn5)CCC4)c(OC)cc3C(=O)N2C1 (stereo partly shown) [Compound 11]
30 μM cysteine, 1 h
  Percentage of all products: 21.2%
30 μM cysteine, 4 h
  Percentage of all products: 15.5%
30 μM cysteine, 24 h
  Percentage of all products: 4.8%
200 μM cysteine, 1 h
  Percentage of all products: 6.5%
200 μM cysteine, 4 h
  Percentage of all products: 3.6%
200 μM cysteine, 24 h
  Percentage of all products: 1.5%
4 mM GSH, 1 h
  Percentage of all products: 9.1%
4 mM GSH, 4 h
  Percentage of all products: 4.5%
4 mM GSH, 24 h
  Percentage of all products: 0.7%

## C=C1C[C@H]2C=Nc3cc(OCCCCCOc4cc5c(cc4OC)C(=O)N4CC(=C)C[C@H]4C(O)N5C(=O)OCC4(SSC[C@H](N)C(=O)O)CCC4)c(OC)cc3C(=O)N2C1 (stereo partly shown) [Compound 12a]
30 μM cysteine, 1 h
  Percentage of all products: 73.5%
30 μM cysteine, 4 h
  Percentage of all products: 74.8%
30 μM cysteine, 24 h
  Percentage of all products: 66.7%
200 μM cysteine, 1 h
  Percentage of all products: 21.5%
200 μM cysteine, 4 h
  Percentage of all products: 11.6%
200 μM cysteine, 24 h
  Percentage of all products: 0.8%

## C=C1C[C@H]2C=Nc3cc(OCCCCCOc4cc5c(cc4OC)C(=O)N4CC(=C)C[C@H]4C(O)N5C(=O)OCC4(SSC[C@H](NC(=O)CC[C@H](N)C(=O)O)C(=O)NCC(=O)O)CCC4)c(OC)cc3C(=O)N2C1 (stereo partly shown) [Compound 12b]
4 mM GSH, 1 h
  Percentage of all products: 1.6%
4 mM GSH, 4 h
  Percentage of all products: 0.2%
4 mM GSH, 24 h
  Percentage of all products: 0%
